Data on one compound can be found in patent US20050239873A1 (priority 1999, published 2005).

The target of one test is T1, Bcl-xL(ΔC) (Homo sapiens, UniProt Q07817).
T1 construct: made in house; host or cells: Escherichia coli BL21(DE3) carrying pUB520
The test can be described thus: Displacement of AA bound to Bcl-xL(ΔC). The test is classed as binding. On the procedure: The non-peptide BCl-xL inhibitors, BH3I-1 and BH3I-2, interact with Phe-97 and Ala-142 in the BCl-xL hydrophobic pocket by NMR chemical shift perturbation (Degterev et al., Nat. Cell Biol. 3:173-182, 2001; Lugovskoy et al., J. Amer. Chem. Soc. 124:1234-1240, 2002). It was determined that BH3I-1 competes with AA1 for Bcl-xL(ΔC) binding.

The next test addresses T2, Bcl-xL(ΔC) WT (Homo sapiens, UniProt Q07817).
T2 construct: inferred from Ni-NTA purification and the pET22b(+) NdeI/XhoI cloning); made in house; host or cells: Escherichia coli BL21(DE3) carrying pUB520
Put plainly: Pore-forming activity, calcein release from liposomes. The test is classed as biochemical. As for the experimental part:
Large unilamellar vesicles composed of 60% dioleoylphophatidylcholine and 40% dioleoylphosphatidylglycerol were prepared by the extrusion method of Mayer et al., supra. Lipid stocks, in chloroform, were mixed and dried under a stream of nitrogen gas. The lipid was resuspended by vortexing for 30 min in a solution of 40 mM calcein (Molecular Probes), 25 mM KCl, and 10 mM KOAc, pH 5.0. After 10 freeze-thaw cycles, the lipid suspension was extruded through two 0.1 μm pore diameter Nucleopore filters. Non-entrapped dye was removed by passage over a Sephadex G10 column (Amersham Biosciences). Lipid concentration was measured using the ammonium ferrothiocyanate method (Stewart, Anal. Biochem. 104:10-14, 1980).
For pore assays, recombinant truncated Bcl-2 family protein or mutant protein (Bcl-xL(ΔC)) (500 nM) was added to large unilamellar vesicles (60 μM lipid concentration) in 100 mM KCl, 10 mM KOAc, pH 5.0, and fluorescence measured (490 nm excitation, 520 nm emission) with a Fluoromax-3 spectrophotometer. Peptides of the BH3 domain were incubated with the BCl-xL(ΔC) 5 min prior to mixing with liposomes. AA1 was added to liposomes 1 min before adding the Bcl-xL(ΔC) protein. Samples for kinetic assays were analyzed in a thermostatted cuvette at 37° C. with constant stirring. Dose responses were measured in black quartz microplates (Hellma) at room temperature. Calcein release was expressed as percentage of maximum release with detergent lysis (0.1% Triton X-100).

T2 sequence (Q07817 1-211 limits assumed, stated change not applied): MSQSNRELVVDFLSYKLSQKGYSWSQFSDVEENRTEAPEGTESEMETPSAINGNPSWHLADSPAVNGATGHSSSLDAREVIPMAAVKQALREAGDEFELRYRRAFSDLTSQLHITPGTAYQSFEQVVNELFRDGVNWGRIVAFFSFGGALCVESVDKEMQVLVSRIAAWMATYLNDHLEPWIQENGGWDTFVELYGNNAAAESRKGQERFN
T1 sequence (Q07817 1-211 limits assumed, stated change not applied): as above

On Bcl-xL(ΔC), `CC(C)C(C(=O)O)N1C(=O)/C(=C\c2ccc(Br)cc2)SC1=S` (centres unmarked) [BH3I-1] gave an inhibition constant (Ki) of 1870 ± 617 nM. Also, the “effect on Bcl-xL pore-forming activity” value at Bcl-xL(ΔC) WT was “no effect”.
